Bridges are numbered along the chain shown (N, C = ends). Roman numbers before positions name the chains, in order. Where no end group is shown, it is not given here.

The subject of experiment [1] is HC2 20d2/c tumor cells pulsed with the immunizing peptide. Briefly: ELISPOT assay (anti-interferon-gamma) of cytotoxic T lymphocyte activity of splenocytes from immunized mice. The class given is cell-based. As to conditions: FIG. 5; for CTL response compared with mouse treated with SEQ ID NO: 82 (EGFRvIII): mice which had undergone tumor regression. How it is done: Briefly, the ELISPOT method is performed by coating a cell culture dish or well with a cytokine capture antibody, for example an anti-interferon gamma antibody. The unoccupied spots on the culture dish or well are then blocked with a non-specific binding protein. Target cells, for example tumor cells, that endogenously synthesize the alternative splice form which has been used to stimulate PBLs are added to the culture dish or well. Alternatively, target cells can be pulsed with the peptide of interest. Activated PBLs are then added to the culture dish or well. If the activated PBLs specifically lyse the target cells, the PBLs secrete cytokines such as interferon-gamma, which is captured by the cytokine capture antibody initially coated onto the culture dish or well. A secondary antibody that recognized a different epitope of interferon gamma is then used to detect the presence of any interferon-gamma secreted by the PBLs and captured by the cytokine capture antibody. The secondary antibody can be conjugated with a detectable label, such as fluorescent or radioactive label. Identification of peptides of the invention which induce MHC-restricted cytotoxic T lymphocyte responses by the ELISPOT method is shown in Example 5 below.
Splenocytes from mice inoculated with GM-CSF only were used as a control (“control”). HC2 20d2/c tumor cells pulsed with 10 micrograms/ml of the immunizing peptide, or mouse serum albumin (for splenocytes from GM-CSF only treated animals) were used as the target cells for the treatment and control splenocytes, respectively. Untreated HC2 20d2/c tumor cells were used as negative control target cells.
The splenocytes were incubated at various ratios (from 10:1 to 2:1) with target cells in triplicate, and lytic events were identified with an ELISPOT assay using anti-interferon-gamma antibody as the cytokine capture antibody. The specific spots per 10^6 cells were quantitated using the lytic events from untreated target cells as the background, and then performing linear regression analysis.

For another experiment, the system named is HC2 20d2/c tumor cells. The experiment can be described thus: Regression of HC2 20d2/c tumors in mice vaccinated with VEGF peptides. The experiment is classed as in vivo. As to conditions: FIG. 2; for tumor regression (average tumor volume vs. time): mice injected with HC2 20d2/c tumor cells, vaccinated four days post-injection with peptide plus murine GM-CSF; for reduction in average tumor volume: by the end of the study. The method, then:
The VEGF peptides and the SEQ ID NO: 85 homodimer were evaluated for their ability to elicit an anti-tumor immune response in a mouse tumor model. A total of 112 syngeneic mice were divided into eight treatment groups of 14 mice each, and injected with HC2 20d2/c tumor cells. Four days post-injection, the first through fifth treatment groups were vaccinated in the left inguinal area with 100 μg of either SEQ ID NO: 73, SEQ ID NO: 75, SEQ ID NO: 77, SEQ ID NO: 79, or the SEQ ID NO: 81 dimer diluted in 100 μl of PBS mixed with 45 ng of murine GM-CSF as an adjuvant. The total volume of phosphate buffered saline (PBS) was 150 microliters with 2 mg/ml mouse serum albumin as a carrier. The sixth treatment group was vaccinated as above with a combination of all four VEGF peptides and the SEQ ID NO: 81 homodimer (60 μg each) in a total of 200 microliters of PBS with 45 ng of murine GM-CSF and 2 mg/ml mouse serum albumin. The seventh treatment group was vaccinated as above with 100 μg of a peptide derived from a mutant epidermal growth factor receptor (EGFR) protein called EGFRvIII (SEQ ID NO: 82). The vaccine composition also contained 45 ng of murine GM-CSF and 2 mg/ml mouse serum albumin. The EGFRvIII mutation is the result of a genomic rearrangement in the EGFR gene, and the EGFRvIII peptide (SEQ ID NO: 82) is reported to induce an immune response against tumor cells expressing the mutant receptor. The eighth treatment group was vaccinated with GM-CSF and 2 mg/ml mouse serum albumin in PBS with no peptide, as a control. All treatment groups were then injected once daily for the next 3 days with the 45 ng GM-CSF in the original area of vaccination.

[2] abbreviates: splenocytes of immunized mice which had undergone tumor regression, target cells pulsed with the vaccinating peptide.

“R T K P E K C D K P R R (RTKPEKCDKPRR; VEGF alt splice #1) [SEQ ID NO: 73, peptide encoded by alternatively spliced mouse VEGF mRNA]”: in experiment [1], the “CTL response compared with mouse treated with SEQ ID NO: 82 (EGFRvIII)” value is listed as “greater than that seen for the mouse treated with SEQ ID NO: 82”. The figures for the “CTL response (ELISPOT)” value in experiment [1] (setting [2]) and in experiment [1] (splenocytes of vaccinated mouse which had not undergone tumor regression) were “strong CTL responses” and “poor CTL responses”, respectively. Also, in the experiment with HC2 20d2/c tumor cells, the “tumor regression (average tumor volume vs. time)” value is given as “pattern of regression similar to that found for the EGFRvIII peptide”.
Consider “V V K Q L V Q T P P L P P (VVKQLVQTPPLPP; VEGFB alt splice #1 peptide) [SEQ ID NO: 75, peptide encoded by alternatively spliced murine VEGFB mRNA]”, for which the “CTL response compared with mouse treated with SEQ ID NO: 82 (EGFRvIII)” value in experiment [1] is listed as “greater than that seen for the mouse treated with SEQ ID NO: 82”. Also, in experiment [1] (setting [2]), the “CTL response (ELISPOT)” value is reported as “strong CTL responses”. Further, in the experiment on HC2 20d2/c tumor cells (HC2 20d2/c tumor model), the “time until which regression is seen” value is listed as about 20 days after vaccination and the tumor progression entry is listed as “progress from that point onward”.
On to “SEQ ID NO: 82: peptide derived from a mutant epidermal growth factor receptor (EGFR) protein called EGFRvIII (LEEKKGNYVVTDHC; EGFRvIII peptide) [reference compound]”, for which, in the experiment on HC2 20d2/c tumor cells (HC2 20d2/c tumor model), the tumor progression entry is on record as “progression was not as dramatic as the control mice”. Also, the “duration of initial tumor progression” value with HC2 20d2/c tumor cells (HC2 20d2/c tumor model, after vaccination) is reported as “approximately 5 days”. For the same substance, in the experiment on HC2 20d2/c tumor cells, the “tumor regression (average tumor volume vs. time)” value was “distinct regression noted thereafter”.
On to “RTKPEKCDKPRRC (disulfide I:13-II:13; cysteine pairing not given here) [SEQ ID NO: 81 homodimer]”, for which, in the experiment on HC2 20d2/c tumor cells (HC2 20d2/c tumor model), the “time at which tumor regression is most notable” value is reported as 12 days after vaccination, the “time until which regression is seen” value was about 20 days after vaccination, the tumor progression entry is “initially shows tumor progression” and the “reduction in average tumor volume” value is “strong reduction in average tumor volumes”. Also, the tumor progression entry with HC2 20d2/c tumor cells (HC2 20d2/c tumor model, listed as SEQ ID NO: 81) was “progress from that point onward”. Moreover, in the experiment with HC2 20d2/c tumor cells, the “tumor regression (average tumor volume vs. time)” value is recorded as “induce tumor regression to some degree”.
Consider “L E R S E S C E D R C P (LERSESCEDRCP; VEGFD alt splice #2 peptide) [SEQ ID NO: 79, peptide encoded by alternatively spliced murine VEGFD mRNA]”, for which, in the experiment on HC2 20d2/c tumor cells (HC2 20d2/c tumor model), the “reduction in average tumor volume” value was “strong reduction in average tumor volumes”.

The record behind these values is patent publication US8021658B2, “Alternative splice forms of proteins as basis for multiple therapeutic modalities” (Thomas Jefferson University, priority 2001, dated 2011).
